The experiment deals with Metallothionein 2A (MT2A) mRNA. Put plainly: Stimulation of Metallothioneins: MT2A mRNA in normal human dermal fibroblasts (QuantiGene multiplex branched DNA assay). The class given is cell-based. To be noted: 24 hours, vs ethanol vehicle control, p<0.05. As for the experimental part:
Normal human dermal fibroblasts were cultured in 96 well tissue culture treated plates, containing appropriate culture medium. Stock solution of cis-6 nonenol was made in ethanol. Cells were treated with test material or ethanol vehicle control diluted in growth medium for 24 hours in a humidified 37° C. incubator with 10% CO2. After incubation, growth medium from each plate was removed and 100 μl of lysis buffer was added to the wells and placed in 37° C. incubator with 10% CO2 for 30 minutes. At the end of incubation, the cells were collected in freezer plates and placed in −80° C. freezer, until analysis. Changes in mRNA for Metallothionein 2A (MT2A) after treatment were analysed using Panomics' QuantiGene® multiplex assay that employs a branched DNA technology. Percent increase in mRNA for MT2A was calculated by comparing the test results to that of the vehicle control. […] All results reported are statistically significant at p<0.05.

Molecules are shown by their SMILES.

In the case of `CC/C=C\CCCCCO` [Cis-6-nonenol, cis-6-nonenol], the “stimulation in mRNA levels for Metallothionein 2A” value turned out to be 97% (0.001% cis-6-nonenol) and 96% (0.01% cis-6-nonenol).
